Where a SMILES comes first, the peptide text is derived from it. The star is where a group is joined. Cbz = O=C(OCc1ccccc1)*
Columns and labels:
[1] = system: TPI^E105D-GFP fusion protein; assay: HEK293 TPI^E105D-GFP high content assay (GFP intensity per cell); type: cell-based, human; conditions: for TPI^E105D-GFP fluorescence (in words): prescreen of putative protein stabilizing compounds, 48 hours; for repeat of hit activity in every condition: NIH Clinical Collection, 10 μM and 1 μM, 24 hours and 48 hours; for hit call in LOPAC screen: 10 μM, 48 hour condition
Experimental: HEK293 cells expressing a mutant (E105D) TPI-GFP fusion protein were created using the Flp-In System (Invitrogen, Catalog #K6010-01 and K6010-02) following the manufacturer's protocol. Briefly, a host cell line expressing the transfected Flp-In target site vector, pFRT/lacZeo, was obtained following zeocin resistance selection. TPI^E105D-GFP fusion construct was cloned into the pcDNA 5/FRT expression vector. Co-transfection of 0.1 μg of the pcDNA 5/FRT construct (390 ng/μL) and 0.9 μg of the Flp recombinase expression vector (pOG44, 127 ng/μL) into the Flp-In host cell line was performed with 3.75 μL Lipofectamine 2000 reagent (Invitrogen). A hygromycin dose response was performed to determine the minimum concentration of hygromycin B required to kill untransfected host cells. […] Expression of the TPI^E105D-GFP fusion protein was verified via Western blot. The cells were cultured using standard methods (37° C., 5% CO2) in normal media (DMEM with 10% serum, 100 U penicillin/100 μg streptomycin/ml (Lonza)). To document subcellular localization of mutant GFP-tagged TPI, nuclei were stained with Hoechst 33342 and imaged on an ImageXpress Ultra confocal high content reader in the UV and GFP channel, respectively. A z-series of images (60× objective, 90 planes, 0.3 μm z-steps) was acquired in both channels, and the color combined stack subjected to 3D reconstruction in MetaXpress. A single slice of the reconstructed image was chosen to illustrate the phenotype of mutant TPI-GFP expression.
HEK293 TPI^E105D-GFP cells were plated (50,000 cells/well in collagen-coated 96-well thin-bottom microplates and allowed to attach overhight. Cells were treated with four point, two-fold gradients of 5× treatment solutions of test agents (6 replicates per condition). The final concentration of vehicle was 0.2%. After 48 hours in culture, cells were preincubated with propidium iodide (PI) for 30 minutes and imaged live in the GFP and Texas Red channels on an ImageXpress Ultra high content reader (Molecular Devices) using a 20× objective Images were analyzed with the multiwavelength cell scoring application using GFP to define and enumerate cells. The integrated GFP intensity per cell was used to quantify mutant TPI expression; the number of cells was used as a proxy for growth inhibition and/or cell loss; and the percentage of cells that exceeded a threshold for PI based on vehicle-treated controls was used to measure acute toxicity (necrosis).
Assay ready daughter plates of the NIH Clinical Collection containing 2 μL of a 1 mM DMSO stock were reconstituted in DMEM (60 μL) to yield a 30 μM intermediate treatment concentration. 60 μl of DMSO (3%) was added to columns 1 and 24, and 60 μL of 600 nM luminespib was added to columns 2 and 23 to serve as negative and positive controls, respectively. Aliquots (15 μl) were transferred directly to cells in 384 well plates using an Agilent Bravo liquid handling robot (final concentration in assay, 10 μM). For the 1 μM condition, an aliquot of the 30 μM treatment solution was diluted 1:10 and controls added as above. Aliquots (15 μl) were transferred to cells to yield a […] final concentration. Plates were centrifuged for 30 seconds at 200×g and incubated at 37° C. After 24 hours, plates were imaged live in the GFP channel and returned to the incubator; after 48 hours cells were stained with PI, imaged live in the GFP and PI channels, and analyzed as described above. The LOPAC library was screened using the same procedure except that only the 10 μM, 48 hour condition was used.
A pilot library screen was performed using the NIH Clinical Collection in the HEK TPI^E105D-GFP cell line. The NIH Clinical Collection maintained at the UPDDI contains 446 FDA approved drugs and small molecules that have a history of use in human clinical trials. The collections were assembled through the Molecular Libraries and Imaging Initiative as part of its mission to enable the use of compound screens in biomedical research. […]

TPI^sugarkill = assay: Isolation and visualization of poly-ubiquitinated TPI from MG132-fed flies; type: in vivo, Drosophila melanogaster; conditions: flies fed 1 mg/mL MG132 for 24 hours at 25° C. or 29° C.; immunoprecipitation and Western blot
Experimental: Conjugated anti-TPI resin was prepared with TPI antibody (FL249, Santa Cruz Biotechnology) and the Pierce co-immunoprecipitation kit. Homozygous TPI^sugarkill flies were fed 1 mg/mL MG132 (Sigma) on 10% sucrose for 24 hours at 25° C. or 29° C. Following incubation, flies were homogenized using a mechanical homogenizer in Pierce co-immunoprecipitation lysis buffer with Protease Inhibitor Mini-Tablets (Pierce), MG132 (0.1 mg/mL, Sigma) and NEM (1 μM, Sigma). Protein concentration was determined by BCA assay (Pierce). The lysates (2 mg) were incubated on a rotator overnight at 4° C. with 100 μl of the conjugated anti-TPI resin. The columns were washed three times with 200 μL of Pierce IP wash buffer with Protease Inhibitor Mini-Tablets (Pierce), MG132 (0.1 mg/mL) and 1 μM NEM. A bead only control provided by the Pierce IP kit served as a negative control. The samples were eluted into 2×SDS-PAGE sample buffer (130 mM Tris (pH 6.8), 4% SDS, 4% beta-mercaptoethanol, 20% glycerol, 0.1% bromophenol blue) with Protease Inhibitor Mini-Tablets (Pierce), MG132 (0.1 mg/mL, Sigma) and NEM (1 μM, Sigma). Western blots were conducted as described above with the exception that the blots were boiled in distilled water for 30 minutes prior to blocking. The antibody used for detection of ubiquitin was anti-ubiquitin (1:1000, 6C1 mouse Santa Cruz Biotechnology). […]

TPI^E105D-GFP = assay: High-content analysis in U2OS TPI^E105D-GFP cells; type: cell-based, human; conditions: 48 hours
Experimental: U2OS osteosarcoma cells (ATCC HTB-96) engineered to express the mutant (E105D) TN-GFP protein were generated using the identical method described above for HEK cells and maintained in McCoy's 5A medium (ThermoFisher 16600082).
(§1) FB303 cells were plated (1000/well) in a 384 well collagen-coated microplate. Cells were treated with vehicle (DMSO) or ten-point, two-fold gradients of test compounds for 48 hours in quadruplicates. Cells were fixed with 4% formaldehyde and immunostained with an anti-TPI antibody (Santa Cruz sc-30145) followed by a Cy3-conjugated goat anti-rabbit secondary (Jackson Immunoresearch). Nuclei were counterstained with Hoechst 33342 Images were acquired on an OPERA Phenix high-content imager (20× air objective, widefield, 4 fields/well) and analyzed for total cellular GFP intensity (HEK and U2OS) or total cellular Cy3 intensity (FB303) using Harmony 5.0 image analysis software (Perkin Elmer).

TPI = assay: High-content analysis of TPI levels in patient fibroblasts by immunocytochemistry; type: cell-based, human; conditions: 48 hours
Experimental: as §1

[2] = system: TPI^E105D-GFP fusion protein; assay: HEK293 TPI^E105D-GFP high content assay (GFP intensity per cell); type: cell-based, human; conditions: fresh repurchased samples, ten-point twofold dose-response
[3] = Luo et al. 2015; said to correlate with concentrations needed to increase TPI^E105D-GFP in HEK cells; cited from earlier work

CC(C)C[C@H](NC(=O)[C@H](Cc1ccccc1)NC(=O)c1cnccn1)B(O)O [bortezomib]
TPI^E105D-GFP fluorescence (in words) [1]: significant increase

CC(C)C[C@@H](C=O)NC(=O)[C@H](CC(C)C)NC(=O)[C@H](CC(C)C)NC(=O)OCc1ccccc1 [MG132] (Cbz-Leu-Leu-Leu-aldehyde)
polyubiquitinated TPI^sugarkill signal (TPI^sugarkill): accumulation of polyubiquitinated signal

Cc1[nH]c(=O)c(C#N)cc1-c1ccncc1 [milrinone]
repeat of hit activity in every condition [1]: repeated in every condition

C[C@@H]1C[C@@H]([C@H](O)CC2CC(=O)NC(=O)C2)C(=O)[C@@H](C)C1 [cycloheximide]
TPI^E105D-GFP fluorescence (in words) [1]: significant increase

Oc1ccc(/C=C/c2cc(O)cc(O)c2)cc1 [resveratrol, 3,5,4′-trihydroxy-trans-stilbene]
hit call in LOPAC screen [1]: positive hits
dose-response confirmation of activity, total GFP levels per cell (TPI^E105D-GFP): confirmed activity
dose-response confirmation of activity, total anti-TPI fluorescence (TPI): confirmed activity
concentration dependence of TPI^E105D-GFP increase [2]: concentration-dependent increases

COc1ccccc1OCCNCC(O)COc1cccc2[nH]c3ccccc3c12 (stereo not shown) [carvedilol]
repeat of hit activity in every condition [1]: repeated in every condition

O=C(O)C[C@H](O)C[C@H](O)/C=C/c1c(C2CC2)nc2ccccc2c1-c1ccc(F)cc1 [itavastatin]
repeat of hit activity in every condition [1]: repeated in every condition
concentration dependence of TPI^E105D-GFP increase [2]: concentration-dependent increases
peak plasma levels in humans [3]: 0.55 µM

C[C@H]1[C@H](OC(=O)CCC(=O)O)O[C@@H]2O[C@@]3(C)CC[C@H]4[C@H](C)CC[C@@H]1[C@@]24OO3 [artesunate, 4-oxo-4-[[(1R,4S,5R,8S,9R,10S,12R,13R)-1,5,9-trimethyl-11,14,15,16-tetraoxatetracyclo[10.3.1.0^4,13.0^8,13]hexadecan-10-yl]oxy]butanoic acid]
repeat of hit activity in every condition [1]: repeated in every condition
dose-response confirmation of activity, total GFP levels per cell (TPI^E105D-GFP): confirmed activity
dose-response confirmation of activity, total anti-TPI fluorescence (TPI): confirmed activity

CC[C@H](C)C(=O)O[C@H]1CCC=C2C=C[C@H](C)[C@H](CC[C@@H]3C[C@@H](O)CC(=O)O3)[C@H]21 [mevastatin]
hit call in LOPAC screen [1]: positive hits

— patent publication US20240050440A1, “THERAPEUTIC TARGETS AND AGENTS FOR THE TREATMENT OF TRIOSEPHOSPHATE ISOMERASE (TPI) DEFICIENCY” (University of Pittsburgh- Of The Commonwealth System of …, priority 2020, published 2024)
